Molecular target: 11-beta-hydroxysteroid dehydrogenase 1 (Homo sapiens, UniProt P28845)
Experiment: Inhibition of human 11beta-HSD1 using [3H]cortisone as substrate assessed as production of [3H]-cortisol by scintillation proximity assay

Chain of 11-beta-hydroxysteroid dehydrogenase 1 (P28845 whole entry): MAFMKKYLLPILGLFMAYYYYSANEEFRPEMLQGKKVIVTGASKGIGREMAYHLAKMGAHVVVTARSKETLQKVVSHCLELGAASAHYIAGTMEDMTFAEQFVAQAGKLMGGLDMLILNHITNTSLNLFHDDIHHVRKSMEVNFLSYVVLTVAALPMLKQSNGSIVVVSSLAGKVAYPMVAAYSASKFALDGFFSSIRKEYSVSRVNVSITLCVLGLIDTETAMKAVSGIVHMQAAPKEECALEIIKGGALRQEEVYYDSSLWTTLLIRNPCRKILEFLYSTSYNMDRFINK

Row | IC50 | Structure (SMILES)
1 | > 1000 nM | CN(c1ccc(C(C)(O)C(F)(F)F)cc1)S(=O)(=O)c1ccccc1 (racemic)
2 | > 1000 nM | CC(O)(c1ccc(NS(=O)(=O)c2ccccc2)cc1)C(F)(F)F (racemic)

— ChEMBL document CHEMBL2034897, “Discovery and optimization of benzenesulfonanilide derivatives as a novel class of 11β-HSD1 inhibitors” (Bioorg Med Chem Lett, 2012)
